# According to US20220000832A1 (priority 2019, published 2022):
# System: Melb-a (melanoblast) cells
# Experiment: not given
# Settings: not given
row,Compound,Cell viability (in words)
1,"O=Cc1ccc(C=O)o1 [Example 17, Furan-2,5-dicarbaldehyde]",very low

# Same assay, conditions: mouse
Compound,Cell viability [%],Cell viability (%),Cell viability (in words)
"O=Cc1ccc(CO)o1 [Example 1, 5-(hydroxymethyl)furan-2-carbaldehyde]",≥ 105,–,–
"COC(=O)c1ccc(C(OC)OC)o1 [Example 9, methyl 5-(dimethoxymethyl)furan-2-carboxylate]",≥ 99,–,–
"COC(=O)c1ccc(C=O)o1 [Example 10, methyl 5-formylfuran-2-carboxylate]",≥ 99,–,–
"O=Cc1ccc(C=O)o1 [Example 17, Furan-2,5-dicarbaldehyde]",–,23.08 ± 5.95,low compared to when the compound of Example 1 was treated

# System: Melb-a (melanoblast) cells
# Experiment: cells
# Assay type: cell-based
# Settings: not given
row,Compound,Melanin content compared to negative control (in words)
1,"O=Cc1ccc(CO)o1 [Example 1, 5-(hydroxymethyl)furan-2-carbaldehyde]",gradually increased
2,"COC(=O)c1ccc(C(OC)OC)o1 [Example 9, methyl 5-(dimethoxymethyl)furan-2-carboxylate]",gradually increased
3,"COC(=O)c1ccc(C=O)o1 [Example 10, methyl 5-formylfuran-2-carboxylate]",gradually increased
4,"CC(O)c1ccc(C=O)o1 (centres unmarked) [Example 18, 5-(1-hydroxyethyl)furan-2-carbaldehyde]",slightly increased

# Same assay, conditions: 10 μM
row,Compound,Melanin content compared to negative control (in words)
1,"O=Cc1ccc(C=O)o1 [Example 17, Furan-2,5-dicarbaldehyde]",lowered

# Same assay, conditions: 100 μM
row,Compound,Melanin content (in words)
1,"COC(=O)c1ccc(C=O)o1 [Example 10, methyl 5-formylfuran-2-carboxylate]",somewhat reduced
2,"CC(O)c1ccc(C=O)o1 (centres unmarked) [Example 18, 5-(1-hydroxyethyl)furan-2-carbaldehyde]",decreased

# Same assay, conditions: 1000 μM
row,Compound,Melanin content (in words)
1,"O=Cc1ccc(CO)o1 [Example 1, 5-(hydroxymethyl)furan-2-carbaldehyde]",rather reduced

# Same assay, conditions: 96 h, read-out: Melanin content compared to negative control (%)
Compound,activity at 1000 µM [%],activity at 10 µM [%],activity at 1 µM [%],activity at 100 µM [%]
"O=Cc1ccc(CO)o1 [Example 1, 5-(hydroxymethyl)furan-2-carbaldehyde]",149 ± 17.4,–,–,–
"O=Cc1ccc(COCc2ccccc2)o1 [Example 2, 5-((benzyloxy)methyl)furan-2-carbaldehyde]",–,82.4 ± 4.25,–,–
"C=CCOCc1ccc(C=O)o1 [Example 3, 5-((allyloxy)methyl)furan-2-carbaldehyde]",–,95.2 ± 7.54,–,–
"O=Cc1ccc(C(=O)NCc2ccccc2)o1 [Example 4, N-benzyl-5-formylfuran-2-carboxamide]",–,97.4 ± 4.47,–,–
"CCCNC(=O)c1ccc(C=O)o1 [Example 5, 5-formyl-N-propylfuran-2-carboxamide]",–,94.3 ± 1.51,–,–
"CNC(=O)c1ccc(C=O)o1 [Example 6, 5-formyl-N-methylfuran-2-carboxamide]",–,95.9 ± 2.87,–,–
"O=Cc1ccc(C(=O)OCc2ccccc2)o1 [Example 7, Benzyl 5-formylfuran-2-carboxylate]",–,134 ± 2.32,–,–
"C=CCOC(=O)c1ccc(C=O)o1 [Example 8, allyl 5-formylfuran-2-carboxylate]",–,122 ± 5.15,–,–
"COC(=O)c1ccc(C(OC)OC)o1 [Example 9, methyl 5-(dimethoxymethyl)furan-2-carboxylate]",–,131 ± 2.03,128 ± 7.18,142 ± 5.43
"COC(=O)c1ccc(C=O)o1 [Example 10, methyl 5-formylfuran-2-carboxylate]",–,–,136 ± 5.19,159 ± 1.77
"CCOC(=O)c1ccc(CO)o1 [Example 11, ethyl 5-(hydroxymethyl)furan-2-carboxylate]",–,104 ± 4.63,–,–
"OCc1ccc(CO)o1 [Example 12, Furan-2,5-diyldimethanol]",–,139 ± 1.6,–,–
"COC(=O)c1ccc(CO)o1 [Example 13, methyl 5-(hydroxymethyl)furan-2-carboxylate]",–,145 ± 5.9,–,–
"O=C(O)c1ccc(CO)o1 [Example 14, 5-(hydroxymethyl)furan-2-carboxylic Acid]",–,158.4 ± 0.75,–,–
"CC(O)c1ccc(COC2CCCCO2)o1 (centres unmarked) [Example 15, 1-(5-(((tetrahydro-2H-pyran-2-yl)oxy)methyl)furan-2-yl)ethanol]",–,144 ± 4.59,–,–
"CC(O)c1ccc(CO)o1 (centres unmarked) [Example 16, 1-(5-(hydroxymethyl)furan-2-yl)ethanol]",–,139 ± 19.9,–,–
"O=Cc1ccc(C=O)o1 [Example 17, Furan-2,5-dicarbaldehyde]",–,95.3 ± 6.49,–,–
"CC(O)c1ccc(C=O)o1 (centres unmarked) [Example 18, 5-(1-hydroxyethyl)furan-2-carbaldehyde]",–,–,125 ± 3.04,128 ± 4.15
"CC(=O)OC(C)c1ccc(C=O)o1 (centres unmarked) [Example 19, 1-(5-formylfuran-2-yl)ethyl Acetate]",–,116 ± 3.15,–,–
"CCC(O)c1ccc(C=O)o1 (centres unmarked) [Example 20, 5-(1-hydroxypropyl)furan-2-carbaldehyde]",–,112 ± 1.5,–,–
"CCC(OC(C)=O)c1ccc(C=O)o1 (centres unmarked) [Example 21, 1-(5-formylfuran-2-yl)propyl Acetate]",–,115 ± 2.96,–,–

# System: melb-a cells (melanoblasts)
# Experiment: cells
# Assay type: cell-based
# Settings: not given
Compound,Cell migration rate (in words),Cell migration rate compared to negative control (in words)
"O=Cc1ccc(CO)o1 [Example 1, 5-(hydroxymethyl)furan-2-carbaldehyde]",decreased,gradually increased
"COC(=O)c1ccc(C(OC)OC)o1 [Example 9, methyl 5-(dimethoxymethyl)furan-2-carboxylate]",–,gradually increased
"COC(=O)c1ccc(C=O)o1 [Example 10, methyl 5-formylfuran-2-carboxylate]",–,gradually increased
"CC(O)c1ccc(C=O)o1 (centres unmarked) [Example 18, 5-(1-hydroxyethyl)furan-2-carbaldehyde]",–,gradually increased

# Same assay, conditions: 100 μM
row,Compound,Cell migration rate (in words)
1,"CC(O)c1ccc(C=O)o1 (centres unmarked) [Example 18, 5-(1-hydroxyethyl)furan-2-carbaldehyde]",rather decreased

# Same assay, conditions: 24 h, 1 μM; read-out: Increase of cell migration rate compared to negative control
row,Compound,fold induction at 1 µM
1,"O=Cc1ccc(CO)o1 [Example 1, 5-(hydroxymethyl)furan-2-carbaldehyde]",2
2,"COC(=O)c1ccc(C(OC)OC)o1 [Example 9, methyl 5-(dimethoxymethyl)furan-2-carboxylate]",~1.9
3,"COC(=O)c1ccc(C=O)o1 [Example 10, methyl 5-formylfuran-2-carboxylate]",~1.9
4,"CC(O)c1ccc(C=O)o1 (centres unmarked) [Example 18, 5-(1-hydroxyethyl)furan-2-carbaldehyde]",~1.7

# Same assay, conditions: 24 h, 10 μM; read-out: Increase of cell migration rate compared to negative control
row,Compound,fold induction at 10 µM
1,"O=Cc1ccc(CO)o1 [Example 1, 5-(hydroxymethyl)furan-2-carbaldehyde]",2.7
2,"CCCNC(=O)c1ccc(C=O)o1 [Example 5, 5-formyl-N-propylfuran-2-carboxamide]",> 2
3,"O=Cc1ccc(C(=O)OCc2ccccc2)o1 [Example 7, Benzyl 5-formylfuran-2-carboxylate]",> 2
4,"COC(=O)c1ccc(C(OC)OC)o1 [Example 9, methyl 5-(dimethoxymethyl)furan-2-carboxylate]",> 2
5,"COC(=O)c1ccc(C=O)o1 [Example 10, methyl 5-formylfuran-2-carboxylate]",> 2
6,"O=C(O)c1ccc(CO)o1 [Example 14, 5-(hydroxymethyl)furan-2-carboxylic Acid]",> 2
7,"CC(O)c1ccc(CO)o1 (centres unmarked) [Example 16, 1-(5-(hydroxymethyl)furan-2-yl)ethanol]",> 2
8,"CC(O)c1ccc(C=O)o1 (centres unmarked) [Example 18, 5-(1-hydroxyethyl)furan-2-carbaldehyde]",> 2
9,"CC(=O)OC(C)c1ccc(C=O)o1 (centres unmarked) [Example 19, 1-(5-formylfuran-2-yl)ethyl Acetate]",> 2
10,"CCC(O)c1ccc(C=O)o1 (centres unmarked) [Example 20, 5-(1-hydroxypropyl)furan-2-carbaldehyde]",> 2
11,"CCC(OC(C)=O)c1ccc(C=O)o1 (centres unmarked) [Example 21, 1-(5-formylfuran-2-yl)propyl Acetate]",> 2

# Same assay, conditions: 24 h, 100 μM; read-out: Increase of cell migration rate compared to negative control
row,Compound,fold induction at 100 µM
1,"O=Cc1ccc(CO)o1 [Example 1, 5-(hydroxymethyl)furan-2-carbaldehyde]",~4
2,"COC(=O)c1ccc(C(OC)OC)o1 [Example 9, methyl 5-(dimethoxymethyl)furan-2-carboxylate]",~3
3,"COC(=O)c1ccc(C=O)o1 [Example 10, methyl 5-formylfuran-2-carboxylate]",~2.7

# Same assay, conditions: 24 h, read-out: Cell migration rate (%)
Compound,activity at 25 µM [%],activity at 50 µM [%],activity at 1000 µM [%],activity at 10 µM [%],activity at 1 µM [%],activity at 100 µM [%]
"O=Cc1ccc(CO)o1 [Example 1, 5-(hydroxymethyl)furan-2-carbaldehyde]",263 ± 12.7,309 ± 15.5,253 ± 13.4,–,–,–
"O=Cc1ccc(COCc2ccccc2)o1 [Example 2, 5-((benzyloxy)methyl)furan-2-carbaldehyde]",–,–,–,114 ± 18.9,–,–
"C=CCOCc1ccc(C=O)o1 [Example 3, 5-((allyloxy)methyl)furan-2-carbaldehyde]",–,–,–,134 ± 11.7,–,–
"O=Cc1ccc(C(=O)NCc2ccccc2)o1 [Example 4, N-benzyl-5-formylfuran-2-carboxamide]",–,–,–,115 ± 19.5,–,–
"CCCNC(=O)c1ccc(C=O)o1 [Example 5, 5-formyl-N-propylfuran-2-carboxamide]",–,–,–,229 ± 11.6,–,–
"CNC(=O)c1ccc(C=O)o1 [Example 6, 5-formyl-N-methylfuran-2-carboxamide]",–,–,–,139 ± 17.5,–,–
"O=Cc1ccc(C(=O)OCc2ccccc2)o1 [Example 7, Benzyl 5-formylfuran-2-carboxylate]",–,–,–,202 ± 61.9,–,–
"C=CCOC(=O)c1ccc(C=O)o1 [Example 8, allyl 5-formylfuran-2-carboxylate]",–,–,–,178 ± 19.8,–,–
"COC(=O)c1ccc(C(OC)OC)o1 [Example 9, methyl 5-(dimethoxymethyl)furan-2-carboxylate]",–,–,–,–,198 ± 6.81,303 ± 18.7
"COC(=O)c1ccc(C=O)o1 [Example 10, methyl 5-formylfuran-2-carboxylate]",–,–,–,–,189 ± 11.4,283 ± 7.03
"CCOC(=O)c1ccc(CO)o1 [Example 11, ethyl 5-(hydroxymethyl)furan-2-carboxylate]",–,–,–,112 ± 13.9,–,–
"OCc1ccc(CO)o1 [Example 12, Furan-2,5-diyldimethanol]",–,–,–,173 ± 29.9,–,–
"COC(=O)c1ccc(CO)o1 [Example 13, methyl 5-(hydroxymethyl)furan-2-carboxylate]",–,–,–,161 ± 29.4,–,–
"O=C(O)c1ccc(CO)o1 [Example 14, 5-(hydroxymethyl)furan-2-carboxylic Acid]",–,–,–,264 ± 7.81,–,–
"CC(O)c1ccc(COC2CCCCO2)o1 (centres unmarked) [Example 15, 1-(5-(((tetrahydro-2H-pyran-2-yl)oxy)methyl)furan-2-yl)ethanol]",–,–,–,197 ± 33.8,–,–
"CC(O)c1ccc(CO)o1 (centres unmarked) [Example 16, 1-(5-(hydroxymethyl)furan-2-yl)ethanol]",–,–,–,215 ± 13.9,–,–
"O=Cc1ccc(C=O)o1 [Example 17, Furan-2,5-dicarbaldehyde]",–,–,–,118 ± 21.9,–,–
"CC(O)c1ccc(C=O)o1 (centres unmarked) [Example 18, 5-(1-hydroxyethyl)furan-2-carbaldehyde]",–,–,–,–,177 ± 25.5,167 ± 20.3
"CC(=O)OC(C)c1ccc(C=O)o1 (centres unmarked) [Example 19, 1-(5-formylfuran-2-yl)ethyl Acetate]",–,–,–,230 ± 25.1,–,–
"CCC(O)c1ccc(C=O)o1 (centres unmarked) [Example 20, 5-(1-hydroxypropyl)furan-2-carbaldehyde]",–,–,–,261 ± 16.8,–,–
"CCC(OC(C)=O)c1ccc(C=O)o1 (centres unmarked) [Example 21, 1-(5-formylfuran-2-yl)propyl Acetate]",–,–,–,260 ± 16.5,–,–
